For 1 compound, apoptotic cells results are on record in patent US20240408033A1, “CELL-DERIVED NANOVESICLES FOR IN VIVO TRANSPORT AND DELIVERY OF THERAPEUTIC MATERIALS” (The Board of Trustees of the Leland Stanford Junior …, priority 2021, published 2024).

The subject of the test is GL-26 GBM cells. The experiment in a line: PI staining-based apoptosis FACS analysis, GL-26 cells. To be noted: TMZ at 250 μM, alone or with mpEVs (50 pmol).

Source text: We evaluated the therapeutic potential of miRNA-loaded mpEVs (50 pmol) in GL-26 cells in combination with TMZ and quantified the chemosensitizing effects of the miRNA-loaded mpEVs using PI staining-based FACS analysis (FIG. 13).
To investigate the chemosensitizing effect of miRNAs-loaded mpEVs in the absence and presence of TMZ at different concentrations, we seeded the U87 glioma cells at a density of 1×10^5 cells per well in 12-well plates. Next, we treated the cells with mpEVs from control and CXCR4-NSCs with and without loaded miRNAs. On the following day, we treated the cells with TMZ at different concentrations (0 μM, 250 μM, and 500 μM) for each kind of EV. At 24 h after TMZ administration, we collected the cells and fixed in ice cold 70% ethanol at −20° C. for 30 min. We then washed the fixed cells once with 2 ml of PBS and stained with PI (15 nM) in the presence of RNase A (10 mg/ml) and 0.01% Triton-X100 (Life Technologies, Grand Island, NY, USA). […] Likewise, the chemosensitizing effect of miRNA loaded mpEVs for TMZ therapy was also investigated against GL26 cells by using a similar procedure.

As to `Cn1nnc2c(C(N)=O)ncn2c1=O` [TMZ, temozolomide], the apoptotic cells came out at 13.9%.
